Measurements from US9359298B2, “Cajanine structure analogous compound, preparation method and use” (INSTITUTE OF MEDICINAL BIOTECHNOLOGY, CHINESE ACADEMY OF …, priority 2011, dated 2016).
In brackets after ≈: the same amount, converted by molar mass.

Experiments:
Format in all cases: cell-based
PC12 cells [1] = test: Neuroprotective activity assay, rotenone injury to PC12 cells (MTT); conditions: 10 μM test compound, 4 μM rotenone, 48 h, Control 100.0 ± 8.9, Model 73.2 ± 7.8; for viability at 10 µM: Rattus norvegicus, PC-12, 48 h, read-out: rotenone (surviving PC12 cells, MTT 570 nm)
Description: (§1) Discard the original culture media from confluent monolayers of PC12 cells (simulated neuronal cells), add DMEM complete medium with 5% FBS, 5% horse serum gently beat upon the cells with a pipette to completely disperse them, inoculate 100 μl cell suspension at a density of […] per well to 96 hole plates treated with poly-lysine (0.1 mg/ml) in advance, culture for 24h. Divide the experimenting cells into control group, model group and dosing groups. Add complete medium to the control group. Model groups includes rotenone group and serum-deprived group, add rotenone to the corresponding modules with a final concentration of 4 μM rotenone to take effect on the cells for 48 h, add serum-deprived groups with serum-free DMEM medium to take effect on the cells for 48 h. Dosing groups also includes two groups, one using rotenone module as model, another using serum-deprived module as model, and both add in 10 μM test compounds during modeling. 48h later, add 10 μl 5 mg/ml MTT, subsequently discard the supernatant 4h later and add in 150 μl DMSO, measure 570 nm absorbance to represent the numbers of surviving cells.

[2] = test system: Influenza A virus (hanfang359/95); test: Determination of anti-influenza virus activity (CPE in MDCK cells); conditions: for IC50: Influenza A virus, MDCK, 36 h; for anti-influenza virus activities compared with the lead compound cajanine: statement in words
HCV = test: Anti-hepatitis C virus (HCV) activity assay (HCV RNA in Huh7.5 cells); conditions: for EC50: Hepatitis C virus, Huh7.5, 72 h, read-out: HCV EC50; for anti-HCV viral activity: statement in words
Description: Inoculate Huh7.5 cells into 96-well plates to a density of 3×10^4 cells/cm^2, culture for 24h, infect the cells with 45 IU/cell HCV supernatant, meanwhile, add drug solutions or solvent control for treatment.

HIV-1 III B virus = test: Anti-HIV activity assay (P24 antigen in MT-4 cells); conditions: for IC50: Human immunodeficiency virus 1, MT4, 96 h, read-out: HIV IC50; for anti-HIV viral activity: statement in words
Coxsackie virus B6 = test: Coxsackie virus activity assay (CPE in Vero cells); conditions: for IC50: Vero, read-out: COX-B6 IC50, Vero cells, about 100TCID50, CPE, Reed-Muench
PC12 cells [3] = test: Neuroprotective activity assay, serum-deprived injury to PC12 cells (MTT); conditions: 10 μM test compound, 48 h, Control 100.0 ± 9.2, Model 69.3 ± 4.1; for viability at 10 µM: Rattus norvegicus, PC-12, 48 h, read-out: serum-deprived (surviving PC12 cells, MTT 570 nm)
Description: as §1

[4] = Huh7.5 cells, 72 h, HCV RNA by RT-PCR, Reed-Muench
[5] = MT-4 cells, HIV-1 III B 100TCID50, 96 h, P24 antigen

Row | Molecule | rotenone (surviving PC12 cells, MTT 570 nm) (PC12 cells [1]) | Influenza A virus (hanfang359/95) IC50 [2] [µg/mL] | HCV EC50 (HCV; [4]) [µg/mL] | HIV IC50 (HIV-1 III B virus; [5]) [µg/mL] | COX-B6 IC50 (Coxsackie virus B6) [µg/mL] | serum-deprived (surviving PC12 cells, MTT 570 nm) (PC12 cells [3]) | viability at 10 µM (PC12 cells [1]) [%] | IC50 [2] [µg/mL] | EC50 (HCV; [4]) [µg/mL] | anti-HCV viral activity (HCV) | IC50 (HIV-1 III B virus; [5]) [µg/mL] | anti-HIV viral activity (HIV-1 III B virus) | IC50 (Coxsackie virus B6) [µg/mL] | viability at 10 µM (PC12 cells [3]) [%] | anti-influenza virus activities compared with the lead compound cajanine [2]
1 | 2-isopentenyl-3-methoxy-5-[4′-methylcyclohexylene methyl]phenol [Compound 10n] | 78.6 ± 3.2 | >0.69 | 0.89 | 1.43 | >2.05 | 79.6 ± 2.8 | – | – | – | – | – | – | – | – | –
2 | COc1cc(/C=C/c2cc(O)cc(O)n2)c(C(=O)O)c(O)c1CC=C(C)C [1a′, 2-hydroxy-3-isopentenyl-4-methoxy-6-[(E)-2-(4,6-dihydroxy-2-yl)ethenyl]benzoic acid] | – | – | – | – | – | – | 87.2 ± 4.3 | 0.19 (≈ 0.512 µM) | 0.94 (≈ 2.53 µM) | stronger anti-HIV, HCV viral activities | 1.38 (≈ 3.72 µM) | stronger anti-HIV, HCV viral activities | 0.36 (≈ 0.969 µM) | 88.7 ± 4.9 | –
3 | COc1cccc(/C=C/c2cc(OC)c(CC=C(C)C)c(O)c2C(=O)O)n1 [1b′, 2-hydroxy-3-isopentenyl-4-methoxy-6-[(E)-2-(6-methoxypyrid-2-yl)ethenyl]benzoic acid] | – | – | – | – | – | – | 87.2 ± 6.31 | 4.62 (≈ 12.5 µM) | 0.88 (≈ 2.38 µM) | stronger anti-HIV, HCV viral activities | 3.19 (≈ 8.64 µM) | stronger anti-HIV, HCV viral activities | 5.98 (≈ 16.2 µM) | 88.9 ± 1.9 | –
4 | COc1cc(/C=C/c2cccc(O)n2)c(C(=O)O)c(O)c1CC=C(C)C [1c′, 2-hydroxy-3-isopentenyl-4-methoxy-6-[(E)-2-(6-hydroxypyrid-2-yl)ethenyl]benzoic acid] | – | – | – | – | – | – | 85.6 ± 3.8 | 1.34 (≈ 3.77 µM) | 1.3 (≈ 3.66 µM) | – | 1.61 (≈ 4.53 µM) | – | 2.56 (≈ 7.2 µM) | 85.9 ± 4.7 | –
5 | C=CCc1c(OC)cc(/C=C/c2ccccc2)c(C(=O)OC)c1O [8a′, methyl 2-hydroxy-3-allyl-4-methoxy-6-[(E)-styryl]benzoate] | – | – | – | – | – | – | 88 ± 6.9 | 0.15 (≈ 0.462 µM) | – | – | – | – | 1.64 (≈ 5.06 µM) | 87.9 ± 2.5 | –
6 | COc1cc(/C=C/c2cc(O)ccn2)cc(O)c1CC=C(C)C [10a′, 2-isopentenyl-3-methoxy-5-[(E)-2-(4-hydroxypyrid-2-yl)ethenyl]phenol] | – | – | – | – | – | – | 89.2 ± 3.2 | 0.17 (≈ 0.546 µM) | 1.41 (≈ 4.53 µM) | – | 1.33 (≈ 4.27 µM) | – | 0.41 (≈ 1.32 µM) | 86.3 ± 1.2 | –
7 | COc1cc(/C=C/c2cc(O)c(CC=C(C)C)c(OC)c2)nc(OC)c1 [10d′] | – | – | – | – | – | – | 94.3 ± 5.4 | 0.14 (≈ 0.394 µM) | 0.65 (≈ 1.83 µM) | – | 1.3 (≈ 3.66 µM) | – | 0.35 (≈ 0.985 µM) | 91.2 ± 3.2 | –
8 | COc1cc(/C=C/c2cc(O)cc(O)n2)cc(O)c1CC=C(C)C [10e′] | – | – | – | – | – | – | 88.9 ± 2.8 | 0.21 (≈ 0.641 µM) | 1.87 (≈ 5.71 µM) | – | 0.71 (≈ 2.17 µM) | – | 1.21 (≈ 3.7 µM) | 87.9 ± 4.7 | –
9 | COc1cccc(/C=C/c2cc(O)c(CC=C(C)C)c(OC)c2)n1 [10f′] | – | – | – | – | – | – | 79.1 ± 5.6 | 0.23 (≈ 0.707 µM) | 0.61 (≈ 1.87 µM) | – | 1.04 (≈ 3.2 µM) | – | 2.31 (≈ 7.1 µM) | 80.5 ± 3.2 | –
10 | COc1cc(/C=C/c2cccc(O)n2)cc(O)c1CC=C(C)C [10g′] | – | – | – | – | – | – | 63.5 ± 2.1 | 0.87 (≈ 2.79 µM) | 2.3 (≈ 7.39 µM) | – | 3.93 (≈ 12.6 µM) | – | 0.12 (≈ 0.385 µM) | 71 ± 5.2 | –
11 | C=CCc1c(O)cc(/C=C/c2ccccc2)cc1OC [10h′, 2-allyl-3-methoxy-5-[(E)-styryl]phenol] | – | – | – | – | – | – | 86.7 ± 4.5 | 0.09 (≈ 0.338 µM) | – | – | – | – | 0.54 (≈ 2.03 µM) | 87.6 ± 4.3 | –
12 | COc1cc(/C=C/c2ccc(F)cc2)c(C(=O)O)c(O)c1CC=C(C)C [Compound 1a, 2-hydroxy-3-isopentenyl-4-methoxy-6-[(E)-4-fluorostyryl]benzoic acid] | – | – | – | – | – | – | 62.4 ± 3.8 | > 0.69 | 1.04 (≈ 2.92 µM) | stronger anti-HIV, HCV viral activities | 1.01 (≈ 2.83 µM) | stronger anti-HIV, HCV viral activities | > 0.69 | 16.7 ± 0.6 | –
13 | COc1cc(/C=C/c2ccccc2Cl)c(C(=O)O)c(O)c1CC=C(C)C [Compound 1b, 2-hydroxy-3-isopentenyl-4-methoxy-6-[(E)-2-chlorostyryl]benzoic acid] | – | – | – | – | – | – | 68.2 ± 8 | > 18.5 | 0.67 (≈ 1.8 µM) | stronger anti-HIV, HCV viral activities | 1.22 (≈ 3.27 µM) | stronger anti-HIV, HCV viral activities | > 1.03 | 15.7 ± 0.3 | –
14 | COc1ccc(/C=C/c2cc(OC)c(CC=C(C)C)c(O)c2C(=O)O)cc1 [Compound 1c] | – | – | – | – | – | – | 77.2 ± 0.6 | > 2.06 | 2.69 (≈ 7.3 µM) | stronger anti-HIV, HCV viral activities | 1.64 (≈ 4.45 µM) | stronger anti-HIV, HCV viral activities | 1.6 (≈ 4.34 µM) | 16.1 ± 0.7 | –
15 | COc1cc(/C=C/c2ccccc2C)c(C(=O)O)c(O)c1CC=C(C)C [Compound 1e, 2-hydroxy-3-isopentenyl-4-methoxy-6-[(E)-2-methylstyryl]benzoic acid] | – | – | – | – | – | – | 55.6 ± 9.9 | > 2.47 | 0.47 (≈ 1.33 µM) | stronger anti-HIV, HCV viral activities | 2.7 (≈ 7.66 µM) | stronger anti-HIV, HCV viral activities | 3.26 (≈ 9.25 µM) | 30.6 ± 12 | –
16 | COc1cc(/C=C/c2cccc(C)c2)c(C(=O)O)c(O)c1CC=C(C)C [Compound 1f, 2-hydroxy-3-isopentenyl-4-methoxy-6-[(E)-3-methylstyryl]benzoic acid] | – | – | – | – | – | – | 58 ± 4.5 | 0.48 (≈ 1.36 µM) | 0.53 (≈ 1.5 µM) | stronger anti-HIV, HCV viral activities | 1.45 (≈ 4.11 µM) | stronger anti-HIV, HCV viral activities | 4.65 (≈ 13.2 µM) | 31.7 ± 10.3 | significantly stronger than the lead compound cajanine
17 | COc1cc(/C=C/c2ccc(C)cc2)c(C(=O)O)c(O)c1CC=C(C)C [Compound 1g, 2-hydroxy-3-isopentenyl-4-methoxy-6-[(E)-4-methylstyryl]benzoic acid] | – | – | – | – | – | – | 77.7 ± 12.9 | > 0.82 | 1.43 (≈ 4.06 µM) | – | 0.68 (≈ 1.93 µM) | – | 4.25 (≈ 12.1 µM) | 59.8 ± 11.4 | –
18 | CC/C=C/c1cc(OC)c(CC=C(C)C)c(O)c1C(=O)O [Compound 1h, 2-hydroxy-3-isopentenyl-4-methoxy-6-[(E)-buten-1-yl]benzoic acid] | – | – | – | – | – | – | 70 ± 7.1 | 1.92 (≈ 6.61 µM) | 2.6 (≈ 8.95 µM) | – | 2.39 (≈ 8.23 µM) | – | 15.3 (≈ 52.7 µM) | 43.8 ± 8.8 | –
19 | COc1cc(/C=C(\C)c2ccccc2)c(C(=O)O)c(O)c1CC=C(C)C [Compound 1i, 2-hydroxy-3-isopentenyl-4-methoxy-6-[(E)-2-phenylpropen-1-yl]benzoic acid] | – | – | – | – | – | – | 55.1 ± 4.8 | > 0.82 | 0.59 (≈ 1.67 µM) | stronger anti-HIV, HCV viral activities | 1.31 (≈ 3.72 µM) | stronger anti-HIV, HCV viral activities | 6.25 (≈ 17.7 µM) | 28.3 ± 7.6 | –
20 | COc1cc(/C=C/c2cccs2)c(C(=O)O)c(O)c1CC=C(C)C [Compound 1j, 2-hydroxy-3-isopentenyl-4-methoxy-6-[(E)-2-(thien-2-yl)ethenyl]benzoic acid] | – | – | – | – | – | – | 59.8 ± 7.7 | > 0.27 | 0.77 (≈ 2.24 µM) | stronger anti-HIV, HCV viral activities | 1.02 (≈ 2.96 µM) | stronger anti-HIV, HCV viral activities | 2.13 (≈ 6.18 µM) | 27.7 ± 6.3 | –
21 | COc1cc(/C=C/Cc2ccccc2)c(C(=O)O)c(O)c1CC=C(C)C [Compound 1k, 2-hydroxy-3-isopentenyl-4-methoxy-6-[(E)-3′-phenyl-propen-1′-yl]benzoic acid] | – | – | – | – | – | – | 60.4 ± 3.2 | 2.05 (≈ 5.82 µM) | 1.03 (≈ 2.92 µM) | – | 2.4 (≈ 6.81 µM) | – | > 2.06 | 19.2 ± 0.5 | significantly stronger than the lead compound cajanine
